pIC50: −log10 of the molar value. Entries after “also recorded” stand apart in the source; their conditions may differ.
Tests used:
[1] = Drug group: healthy mice given PHT sodium alone, compared with normal control group; format: in vivo, male C57 mice
[2] = system: hepatic stellate cells (HSCs); assay: CCK-8 detection of the effect of PHT sodium on proliferation of HSCs; format: cell-based; details: CCK-8, 48 hours; read-out: IC50 value on HSC proliferation
Method: 1) Cell recoveries are performed as follows. After irradiation with an ultraviolet lamp for 30 minutes on a super clean bench, white light and circulating air flow are turned on, a centrifuge tube is taken, and 3 mL of culture medium is added into the centrifuge tube. The frozen cells are quickly taken out of a refrigerator at −80° C. and put into a constant-temperature water bath at 37° C. to be thawed, and then the cells are sucked out from the super clean bench and put into the prepared centrifuge tube. After sealing, the cells are centrifuged in a centrifuge for 5 minutes (at a speed of 1000 rpm), then a culture flask is prepared, the name and date of the cells are marked, the supernatant is poured out after centrifugation, and a new culture medium is added to blow and mix. Finally, the mixed cells are added to the marked culture flask, and the flask is sprayed with 75% alcohol and placed in a constant temperature incubator for culture. 2) Cell passage is performed as follows. […] The cells in good condition are digested, and then the cells are counted. […] After 1-4 hours of incubation in the incubator, the absorbance is detected by a microplate reader.

HSCs induced by TGF-β1 = assay: CCK-8 detection of the effect of PHT sodium on TGF-β1 induced proliferation of HSCs; format: cell-based; details: PHT sodium 200 μM, p<0.05
Method: The cells in good condition are digested, and then the cells are counted. After counting the concentration ratio, the corresponding volume of cell suspension and culture medium are taken to make the cell concentration required for the experiment. The cells are fully mixed and added to a 96-well plate. According to the experimental requirements, different interventions are given to the cells. After 48 hours, 10% CCK8 solution (the ratio between culture medium and CCK8 is 10:1) is added to each well. After 1-4 hours of incubation in the incubator, the absorbance is detected by a microplate reader.
The effect of TGF-β1 on the proliferation of HSCs is detected by the CCK8 method.

[3] = system: HSCs (α-SMA, LC3, p62 expression); assay: Western blotting of α-SMA, LC3 and p62 in HSCs stimulated with TGF-β1; format: cell-based; details: TGF-β1+PHT vs TGF-β1 alone; PHT sodium 200 μM; p<0.05
Method: Extraction of cell protein: the cells that need to be extracted protein are removed from the incubator, rinsed twice with the prepared PBS solution, placed on a clean filter paper, and the remaining PBS is dried. Then, a certain amount of radio immunoprecipitation assay (RIPA) protein lysis solution is added according to the growth of the cells, and the protein is lysed for about 30 minutes. Then, the lysed protein stock solution is scraped with a scraper, placed in prepared EP tubes, and then placed in a high-speed centrifuge and centrifuged at 12,000 rpm at 4° C. for 30 minutes. After centrifugation is completed, the supernatant is taken for subsequent protein quantification.

[4] = system: carbon tetrachloride (CCl4) induced liver fibrosis; assay: Mouse model of liver fibrosis induced by CCl4, treatment group given PHT sodium
[5] = drug group vs normal control group
[6] = treatment group vs model group, p<0.05

With `O=C1NC(=O)C(c2ccccc2)(c2ccccc2)N1` [PHT sodium, phenytoin sodium] the “liver lobules (HE, Masson's trichrome, picric-Sirius red staining)” value ([1]; drug group) was “intact and structurally normal”, the “appearance of the liver” value [1, 5] was “no significant difference” and the “transaminase (ALT, AST) in serum” value [1, 5] was “no significant difference”. For the same molecule, the “positive expression of α-SMA in liver sections (immunohistochemistry)” value ([1]; drug group, at edges of hepatic portal vein and central vein) was “only a small amount of positive expression”, the “general state of mice (fur, activity)” value ([1]; drug group, food and water intake normal) was “smooth fur and active activity” and the pIC50 [2] was 3.63. For the same molecule, the “proliferation of HSCs promoted by TGF-β1” value (HSCs induced by TGF-β1) was “inhibited”, the “expression of autophagy substrate protein p62 in HSCs” value [3] was “significantly increased” and the “expression of autophagy-related protein LC3 in HSCs” value [3] was “significantly decreased”. The “expression of α-SMA in HSCs” value [3] was “significantly lower; also recorded: decreased”, the “collagen content in the liver of mice” value ([4]; staining of liver sections) was “reduce” and the “liver texture (appearance of the liver, naked eye)” value ([4]; treatment group vs model group) was “softer than that of the model group”. For the same molecule, the “activity of the mice” value ([4]; treatment group vs model group, PHT sodium 1 mM, 10 mL/kg i.p. once a day) was “significantly increased”, the “degree of liver fibrosis (HE, Masson's trichrome, picric-Sirius red staining)” value ([4]; treatment group vs model group, liver sections) was “reduced” and the “expression of LC3 in liver tissue (Western blotting)” value [4, 6] was “decreased”. For the same molecule, the “expression of p62 in liver tissue (Western blotting)” value [4, 6] was “increased”, the “expression of α-SMA in liver tissue (Western blotting)” value [4, 6] was “decreased” and the “positive expression of α-SMA in liver sections (immunohistochemistry)” value [4, 6] was “decreased compared with the model group”. For the same molecule, the “transaminase (ALT, AST) in serum” value [4, 6] was “lower than that in the model group”.
